Test results reported in ChEMBL document CHEMBL5370584, “Reprogramming Energy Metabolism with Synthesized PDK Inhibitors Based on Dichloroacetate Derivatives and Targeted Delivery Systems for Enhanced Cancer Therapy” (J Med Chem, 2023).
pEC50, pIC50: −log10 of the molar value. Activity calls are given as the source filed them. No cut-off for these calls is given here.

Assays:
[1] = tested on: MOLM-13; experiment: Antiproliferative activity against human MOLM-13 cells assessed as inhibition of cell growth incubated for 24 hrs by MTT assay; format: functional, cell-based; conditions: MOLM-13, 24 h
[2] = tested on: NB-4; experiment: Antiproliferative activity against human NB4 cells assessed as inhibition of cell growth incubated for 24 hrs by MTT assay; format: functional, cell-based; conditions: NB-4, 24 h
[3] = tested on: 4T1; experiment: Antiproliferative activity against mouse 4T1 cells assessed as inhibition of cell growth incubated for 24 hrs by MTT assay; format: functional, cell-based; conditions: 4T1, 24 h
[4] = tested on: MCF7; experiment: Antiproliferative activity against human MCF7 cells assessed as inhibition of cell growth incubated for 24 hrs by MTT assay; format: functional, cell-based; conditions: MCF7, 24 h
[5] = tested on: HeLa; experiment: Antiproliferative activity against human HeLa cells assessed as inhibition of cell growth incubated for 24 hrs by MTT assay; format: functional, cell-based
[6] = (§1) Antiproliferative activity against African green monkey COS7 cells assessed as inhibition of cell growth incubated for 24 hrs by MTT assay; format: toxicity, cell-based, Chlorocebus aethiops, COS-7; conditions: African green monkey (Chlorocebus aethiops), COS-7 cells
[7] = target: [Pyruvate dehydrogenase (acetyl-transferring)] kinase isozyme 1, mitochondrial (Homo sapiens, UniProt Q15118); experiment: Inhibition of PDK1 (unknown origin) incubated for 30 mins in presence of ATP by kinase glo luminescent kinase assay
Chain of [Pyruvate dehydrogenase (acetyl-transferring)] kinase isozyme 1, mitochondrial (Q15118 whole entry): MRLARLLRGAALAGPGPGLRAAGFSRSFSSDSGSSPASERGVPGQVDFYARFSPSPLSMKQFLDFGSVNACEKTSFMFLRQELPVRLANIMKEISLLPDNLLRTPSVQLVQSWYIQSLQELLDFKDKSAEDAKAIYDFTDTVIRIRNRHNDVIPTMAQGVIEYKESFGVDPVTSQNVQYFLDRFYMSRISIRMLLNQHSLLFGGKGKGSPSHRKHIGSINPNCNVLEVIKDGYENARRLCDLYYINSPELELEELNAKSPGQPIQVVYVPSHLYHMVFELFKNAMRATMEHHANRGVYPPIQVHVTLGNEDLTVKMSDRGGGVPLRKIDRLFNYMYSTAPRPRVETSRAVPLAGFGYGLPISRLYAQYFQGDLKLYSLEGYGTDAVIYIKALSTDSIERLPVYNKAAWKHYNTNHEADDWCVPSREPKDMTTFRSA

[8] = target: [Pyruvate dehydrogenase (acetyl-transferring)] kinase isozyme 1, mitochondrial (Mus musculus) (UniProt Q8BFP9); experiment: Inhibition of PDK1 transcription in mouse 4T1 cells at 4 uM incubated for 24 hrs by qPCR analysis; format: cell-based
Chain of [Pyruvate dehydrogenase (acetyl-transferring)] kinase isozyme 1, mitochondrial (Mus musculus) (Q8BFP9 whole entry): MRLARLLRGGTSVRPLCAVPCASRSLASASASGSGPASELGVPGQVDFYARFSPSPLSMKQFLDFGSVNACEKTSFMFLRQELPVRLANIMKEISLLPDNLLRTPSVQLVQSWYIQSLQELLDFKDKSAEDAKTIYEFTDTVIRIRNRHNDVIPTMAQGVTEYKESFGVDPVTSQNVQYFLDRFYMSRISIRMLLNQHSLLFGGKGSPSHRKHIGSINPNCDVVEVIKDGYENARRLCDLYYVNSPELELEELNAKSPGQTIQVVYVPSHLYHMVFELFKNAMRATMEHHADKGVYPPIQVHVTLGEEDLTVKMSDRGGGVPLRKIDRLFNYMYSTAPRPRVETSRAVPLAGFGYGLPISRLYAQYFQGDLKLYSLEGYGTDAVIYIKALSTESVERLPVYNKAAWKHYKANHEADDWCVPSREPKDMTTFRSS

[9] = target: [Pyruvate dehydrogenase (acetyl-transferring)] kinase isozyme 2, mitochondrial (Mus musculus) (UniProt Q9JK42); experiment: Inhibition of PDK2 transcription in mouse 4T1 cells at 4 uM incubated for 24 hrs by qPCR analysis; format: cell-based
[10] = target: [Pyruvate dehydrogenase (acetyl-transferring)] kinase isozyme 3, mitochondrial (Mus musculus) (UniProt Q922H2); experiment: Inhibition of PDK3 transcription in mouse 4T1 cells at 4 uM incubated for 24 hrs by qPCR analysis; format: cell-based
Chain of [Pyruvate dehydrogenase (acetyl-transferring)] kinase isozyme 3, mitochondrial (Mus musculus) (Q922H2 whole entry): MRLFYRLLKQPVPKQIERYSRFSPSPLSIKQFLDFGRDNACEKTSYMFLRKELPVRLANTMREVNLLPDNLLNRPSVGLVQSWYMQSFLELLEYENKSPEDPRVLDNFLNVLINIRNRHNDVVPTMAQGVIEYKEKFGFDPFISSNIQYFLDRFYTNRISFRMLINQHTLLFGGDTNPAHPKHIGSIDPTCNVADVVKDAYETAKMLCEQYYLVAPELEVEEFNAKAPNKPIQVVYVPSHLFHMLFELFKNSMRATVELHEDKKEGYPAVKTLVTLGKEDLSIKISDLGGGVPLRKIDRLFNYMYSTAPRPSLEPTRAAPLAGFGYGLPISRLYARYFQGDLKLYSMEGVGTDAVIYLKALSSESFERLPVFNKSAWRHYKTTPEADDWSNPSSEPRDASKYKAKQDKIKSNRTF

[11] = target: [Pyruvate dehydrogenase (acetyl-transferring)] kinase isozyme 4, mitochondrial (Mus musculus) (UniProt O70571); experiment: Inhibition of PDK4 transcription in mouse 4T1 cells at 4 uM incubated for 24 hrs by qPCR analysis; format: cell-based
Chain of [Pyruvate dehydrogenase (acetyl-transferring)] kinase isozyme 4, mitochondrial (Mus musculus) (O70571 whole entry): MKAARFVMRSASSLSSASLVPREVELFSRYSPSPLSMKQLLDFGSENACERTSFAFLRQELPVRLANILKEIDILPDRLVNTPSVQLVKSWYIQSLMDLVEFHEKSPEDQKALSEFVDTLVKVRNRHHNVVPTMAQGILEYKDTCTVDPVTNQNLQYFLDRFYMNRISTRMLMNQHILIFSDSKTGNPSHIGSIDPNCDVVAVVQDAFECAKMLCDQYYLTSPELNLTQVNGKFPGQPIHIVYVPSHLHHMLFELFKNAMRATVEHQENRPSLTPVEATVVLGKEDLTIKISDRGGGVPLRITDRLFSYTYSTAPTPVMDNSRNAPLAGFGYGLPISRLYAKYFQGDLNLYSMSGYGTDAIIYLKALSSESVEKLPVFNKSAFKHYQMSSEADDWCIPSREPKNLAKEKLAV

[12] = tested on: 4T1; experiment: Inhibition of PDK1 expression in mouse 4T1 cells at 4 uM incubated for 24 hrs by Western blot analysis; format: functional, cell-based
[13] = tested on: 4T1; experiment: Inhibition of PDK4 expression in mouse 4T1 cells at 4 uM incubated for 24 hrs by Western blot analysis; format: functional, cell-based
[14] = tested on: 4T1; experiment: Inhibition of glycolysis in mouse 4T1 cell lysates assessed as reduction in extracellular acidification rate at 2 uM measured after 6 hrs; format: functional, cell-based
[15] = tested on: Prostate cell; experiment: Antiproliferative activity against human prostate cell assessed as inhibition of cell viability measured after 72 hrs by MTT assay; format: functional, cell-based
[16] = Inhibition of PDK (unknown origin) incubated for 10 mins in presence of ATP; design: species or system Homo sapiens
[17] = tested on: Breast cancer cell line; experiment: Antiproliferative activity against human Breast cancer cell line assessed as inhibition of cell viability measured after 72 hrs by MTT assay; format: functional, cell-based
[18] = Inhibition of PDK (unknown origin); design: species or system Homo sapiens
[19] = tested on: 4T1; experiment: Inhibition of glycolysis in mouse 4T1 cell lysates assessed as reduction in extracellular acidification rate at 20 mM measured after 6 hrs; format: functional, cell-based
[20] = tested on: COS-7; experiment: as §1; format: toxicity, cell-based, Chlorocebus aethiops; conditions: cos-7

O=C(Nc1ccc([As]2SCCCS2)cc1)C(Cl)Cl
pIC50 [1]: 6.04
pIC50 [2]: 6.02
pIC50 [3]: 6.01
pIC50 [4]: 5.75
pIC50 [5]: 6.16
IC50 at 24 h [6]: 3.74 µM
pEC50 [7]: 5.33
inhibition [8]: inactive
inhibition [9]: inactive
inhibition [10]: inactive
inhibition [11]: inactive
inhibition [12]: inactive
inhibition [13]: inactive
inhibition [14]: inactive

O=C(CCCCCCCCCCCNC(=O)C(Cl)Cl)Nc1ccc([As]2SCCCS2)cc1
pIC50 [1]: 6.10
pIC50 [2]: 6.15
pIC50 [3]: 5.85
pIC50 [4]: 5.82
pIC50 [5]: 6.03
IC50 at 24 h [6]: 1.15 µM
pEC50 [7]: 5.89

O=C(CCCCCCNC(=O)C(Cl)Cl)Nc1ccc([As]2SCCCS2)cc1
pIC50 [1]: 5.89
pIC50 [2]: 5.94
pIC50 [3]: 5.68
pIC50 [4]: 5.71
pIC50 [5]: 5.60
IC50 at 24 h [6]: 9.66 µM
pEC50 [7]: 6.72

O=C(CCCCC[P+](c1ccccc1)(c1ccccc1)c1ccccc1)NC(COC(=O)C(Cl)Cl)(COC(=O)C(Cl)Cl)COC(=O)C(Cl)Cl
pIC50 [15]: 4.77

O=C(CCCNC(=O)C(Cl)Cl)Nc1ccccc1[As]1SCCCS1
pIC50 [1]: 5.71
pIC50 [2]: 5.68
pIC50 [3]: 3.48
pIC50 [4]: 5.55
pIC50 [5]: 5.48
IC50 at 24 h [6]: 6.06 µM
pEC50 [7]: 5.54

C[C@@H]1C[C@H]2O[C@@H]2/C=C\C=C\C(=O)Cc2c(Cl)c(O)cc(O)c2C(=O)O1 [RADICICOL]
pEC50 [16]: 2.96

O=C(CCNC(=O)C(Cl)Cl)Nc1ccc([As]2SCCCS2)cc1
pIC50 [1]: 5.87
pIC50 [2]: 5.91
pIC50 [3]: 5.57
pIC50 [4]: 5.49
pIC50 [5]: 5.50
IC50 at 24 h [6]: 6.27 µM
pEC50 [7]: 5.72

CC1(C)CC[C@]2(C(=O)O)CC[C@]3(C)C(=CC[C@@H]4[C@@]5(C)CC[C@H](O[C@@H]6O[C@H](CO[C@@H]7OC[C@H](O)[C@H](O)[C@H]7O)[C@@H](O)[C@H](O)[C@H]6NC(=O)C(Cl)Cl)C(C)(C)[C@@H]5CC[C@]43C)[C@@H]2C1
pIC50 [17]: 6.37

CC(C)c1ccc(COc2ccc(CC(=O)NCCN)cc2Cl)cc1
pEC50 [18]: 5.70

O=C(O)C(Cl)Cl
inhibition [19]: inactive

CN(C)C(=O)c1ccc(S(=O)(=O)c2ccc(NC(=O)[C@@](C)(O)C(F)(F)F)c(Cl)c2)cc1
pEC50 [16]: 7.06

O=C(CCCCNC(=O)C(Cl)Cl)Nc1ccccc1[As]1SCCCS1
pIC50 [1]: 5.75
pIC50 [2]: 5.77
pIC50 [3]: 5.43
pIC50 [4]: 5.27
pIC50 [5]: 5.33
IC50 at 24 h [6]: 5.58 µM
pEC50 [7]: 6.19

O=C(CCCCCNC(=O)C(Cl)Cl)Nc1ccccc1[As]1SCCCS1
pIC50 [1]: 5.79
pIC50 [2]: 5.70
pIC50 [3]: 5.67
pIC50 [4]: 5.68
pIC50 [5]: 5.43
IC50 at 24 h [6]: 6.13 µM
pEC50 [7]: 5.49

O=C(CCCCCCCNC(=O)C(Cl)Cl)Nc1ccccc1[As]1SCCCS1
pIC50 [1]: 5.54
pIC50 [2]: 5.76
pIC50 [3]: 5.53
pIC50 [4]: 5.55
pIC50 [5]: 5.68
IC50 at 24 h [6]: 4.8 µM
pEC50 [7]: 5.72

COc1ccc(-c2c(-c3ccc(O)cc3O)n[nH]c2C)cc1
pEC50 [16]: 3.19

O=C([O-])C(Cl)Cl.[Na+] [SODIUM DICHLOROACETATE]
pEC50 [16]: 3.74

C[C@@H]1CN(C(=O)[C@@](C)(O)C(F)(F)F)[C@@H](C)CN1C(=O)c1ccc(C#N)cc1
pEC50 [18]: 7.80

O=C(CCCCCCCNC(=O)C(Cl)Cl)Nc1ccc([As]2SCCCS2)cc1
pIC50 [1]: 5.91
pIC50 [2]: 5.96
pIC50 [3]: 5.76
pIC50 [4]: 5.72
pIC50 [5]: 5.72
IC50 at 24 h [6]: 9.62 µM
pEC50 [7]: 6.21

O=C(CCCCNC(=O)C(Cl)Cl)Nc1ccc([As]2SCCCS2)cc1
pIC50 [1]: 5.91
pIC50 [2]: 5.87
pIC50 [3]: 5.56
pIC50 [4]: 5.03
pIC50 [5]: 5.49
IC50 at 24 h [6]: 4.6 µM
pEC50 [7]: 6.03

O=S(=O)(c1ccc(O)cc1O)N1Cc2cc(O)cc(O)c2C1
pEC50 [16]: 6.10

O=C(CCCCCCCCCCCNC(=O)C(Cl)Cl)Nc1ccccc1[As]1SCCCS1
pIC50 [1]: 5.87
pIC50 [2]: 6.04
pIC50 [3]: 5.53
pIC50 [4]: 5.74
pIC50 [5]: 5.78
IC50 at 24 h [6]: 3 µM
pEC50 [7]: 5.80

O=C(CCCNC(=O)C(Cl)Cl)Nc1ccc([As]2SCCCS2)cc1
pIC50 [1]: 5.87
pIC50 [2]: 5.90
pIC50 [3]: 5.55
pIC50 [4]: 5.17
pIC50 [5]: 5.45
IC50 at 24 h [6]: 6.12 µM
pEC50 [7]: 6.00

O=C(O)C(Cl)Cl [DICHLOROACETIC ACID]
pIC50 [1]: 1.66
pIC50 [2]: 1.70
pIC50 [3]: 1.52
pIC50 [4]: 1.46
pIC50 [5]: 1.60
pIC50 [20]: 1.40

O=C(CCCCCCNC(=O)C(Cl)Cl)Nc1ccccc1[As]1SCCCS1
pIC50 [1]: 5.70
pIC50 [2]: 5.79
pIC50 [3]: 5.58
pIC50 [4]: 5.53
pIC50 [5]: 5.71
IC50 at 24 h [6]: 8.07 µM
pEC50 [7]: 5.92

O=C(Nc1ccccc1[As]1SCCCS1)C(Cl)Cl
pIC50 [1]: 6.32
pIC50 [2]: 6.28
pIC50 [3]: 5.96
pIC50 [4]: 6.11
pIC50 [5]: 6.57
IC50 at 24 h [6]: 1.87 µM
pEC50 [7]: 5.02

O=C(CCNC(=O)C(Cl)Cl)Nc1ccccc1[As]1SCCCS1
pIC50 [1]: 5.77
pIC50 [2]: 5.79
pIC50 [3]: 5.49
pIC50 [4]: 5.45
pIC50 [5]: 5.60
IC50 at 24 h [6]: 5.23 µM
pEC50 [7]: 5.59
